Laboratory results as given in patent US4432973A, “Benzoyl- and α-hydroxybenzyl-phenyl-glycosides and application thereof in therapeutics” (Societe de Recherches Industrielles (S.O.R.I.), priority 1980, dated 1984).

How the values were obtained:
[1] = Veinous thrombosis: veinous anti-thrombus activity; assay type: in vivo; conditions: 100 mg/kg I.P., 4 to 5 hours after administration; for inhibition in vivo at 100 mg/kg: Rattus norvegicus, ip, read-out: Diminution of veinous thrombus
Description: The technique used is similar to the one described by Peterson-Zucker in Thrombo.Diath.Haemorh. 23, 1, (1970).
An occlusive thrombus is created in the […] vena cava of a rat by the combined action of an endothelial alteration and a veinous stasis for 15 mins. and 4 to 5 hours after administration of the product to be tested (100 mg/kg I.P.).

[2] = Acute toxicity in the mouse by the I.P. route; assay type: in vivo; conditions: for LD50: read-out: DL-50 (lethal dose involving the death of half of the animals)
Text: The acute toxicity was studied in the mouse by the I.P. route. It is expressed in the form of DL-50 (lethal dose involving the death of half of the animals) or DL-0 (maximum non-lethal dose).

[3] = Anti-ulcer activity: ulcer caused by aspirin; assay type: in vivo, rat (male Wistar); conditions: 100 mg/kg I.P.; aspirin 192 mg/kg per os; standardised to control batch and cimetidine (index 1)
Description: The experiment is carried out on male Wistar rats of 180 to 200 g. The products to be tested are administered at 100 mg/kg I.P. (unless indicated to the contrary in Table IV).
At t=0, the rats are made to fast and a first administration of the product to be tested is made.
At t=18 hours, 2 ml of an ulcer-forming suspension with 192 mg of aspirin/kg are administered per os then a second administration of the product to be tested is made.
At t=22 hours, the animals are sacrificed and the ulcers are marked as follows: small point-like ulcers: mark 1 more extensive ulcers: mark 3 highly extensive or very deep ulcers: mark 9
This marking is standardised with respect to a control batch and to cimetidine (a reference product) to which index 1 has been allocated.

[4] = Anti-hypoxic activity: survival to hypoxia (nitrogen-oxygen 95:5); assay type: in vivo, mouse (Swiss male); conditions: I.P., 1/10th of LD-50 or 100 mg/kg when LD-0 ≥ 800 mg/kg; up to 15 minutes; mouse
Description: The experiment is carried out on batches of 20 Swiss male mice weighing from 20 to 30 g. Each product to be tested is administered to the mice by intraperitoneal route at a dose corresponding to 1/10th of the LD-50 or at a dose of 100 mg/kg when the LD-0 is higher than or equal to 800 mg/kg. The mice are placed in a nitrogen-oxygen (95:5) v/v atmosphere. The survival time of the mice is then measured up to 15 minutes maximum.
The results shown in Table VII are expressed in percentage of survival with respect to a non-treated control batch and a batch treated with an anti-hypoxic reference product [specialty known under the trade name of "Duxil" and which is constituted by a mixture of Almitrine bis-methanesulfonate and of Raubasine in the weight ratio 3:1], the anti-hypoxic reference product being administered at the dose of 18 mg/kg I.P.

## O=[N+]([O-])c1ccc(C(O)c2ccc(O[C@@H]3OC[C@@H](O)[C@H](O)[C@H]3O)cc2)cc1 (single isomer, unassigned) [Example 98, [4-(4-nitro-α-hydroxybenzyl)-phenyl]-β-D-xylopyranoside]
[1]
  inhibition in vivo at 100 mg/kg: ≥ 50%

## O=[N+]([O-])c1ccc(C(O)c2ccc(O[C@@H]3OC[C@@H](O)[C@H](O)[C@H]3O)cc2)cc1 (single isomer, unassigned) [Example 99, [4-(4-nitro-α-hydroxybenzyl)-phenyl]-β-D-xylopyranoside]
[1]; rat
  Diminution of veinous thrombus: + (inhibition of 30 to 49%)

## O=C(c1ccc(O[C@@H]2OC[C@@H](O)[C@H](O)[C@H]2O)cc1)c1cccc([N+](=O)[O-])c1 [Example 2]
[2]; I.P.
  DL-0 (maximum non-lethal dose): > 800 mg/kg IP
[3]
  Ulcer index: 0.84
[1]
  inhibition in vivo at 100 mg/kg: 30 to 49%

## O=C(c1ccc(Br)cc1)c1ccc(O[C@@H]2OC[C@@H](O)[C@H](O)[C@H]2O)cc1 [Example 4]
[2]; I.P.
  DL-0 (maximum non-lethal dose): > 800 mg/kg IP
[3]
  Ulcer index: 1.04
[1]
  inhibition in vivo at 100 mg/kg: 30 to 49%

## O=C(c1ccc(O[C@@H]2OC[C@@H](O)[C@H](O)[C@H]2O)cc1)c1ccccc1Cl [Example 5]
[2]; I.P.
  DL-0 (maximum non-lethal dose): > 800 mg/kg IP
[1]
  inhibition in vivo at 100 mg/kg: ≥ 50%

## O=C(c1ccc(O[C@@H]2OC[C@@H](O)[C@H](O)[C@H]2O)cc1)c1ccccc1[N+](=O)[O-] [Example 6]
[2]; in vivo, ip, I.P.
  LD50: 600 mg/kg
[3]
  Ulcer index: 0.45
[1]
  inhibition in vivo at 100 mg/kg: 30 to 49%

## Nc1ccccc1C(=O)c1ccc(O[C@@H]2OC[C@@H](O)[C@H](O)[C@H]2O)cc1 [Example 7]
[2]; I.P.
  DL-0 (maximum non-lethal dose): > 800 mg/kg IP
[1]
  inhibition in vivo at 100 mg/kg: ≥ 50%

## COc1ccc(C(=O)c2ccc(O[C@@H]3OC[C@@H](O)[C@H](O)[C@H]3O)cc2)cc1 [Example 17]
[2]; in vivo, ip, I.P.
  LD50: 1600 mg/kg
[3]
  Ulcer index: 0.69
[1]
  inhibition in vivo at 100 mg/kg: 30 to 49%

## O=C(c1ccccc1)c1ccc(O[C@@H]2OC[C@@H](O)[C@H](O)[C@H]2O)cc1 [Example 18]
[2]; in vivo, ip, I.P.
  LD50: > 1000 mg/kg
[1]
  inhibition in vivo at 100 mg/kg: 30 to 49%

## Cc1cc(C(=O)c2ccc([N+](=O)[O-])cc2)cc(C)c1O[C@@H]1OC[C@@H](O)[C@H](O)[C@H]1O [Example 23]
[2]; in vivo, ip, I.P.
  LD50: 750 mg/kg
[3]
  Ulcer index: 0.52
[1]
  inhibition in vivo at 100 mg/kg: 30 to 49%

## Cc1cc(C(=O)c2ccc([N+](=O)[O-])cc2)ccc1O[C@@H]1OC[C@@H](O)[C@H](O)[C@H]1O [Example 29]
[2]; I.P.
  DL-0 (maximum non-lethal dose): > 800 mg/kg IP
[1]
  inhibition in vivo at 100 mg/kg: 30 to 49%

## CC(=O)N[C@H]1[C@H](Oc2ccc(C(=O)c3ccc(Cl)cc3)cc2)O[C@H](CO)[C@@H](O)[C@@H]1O [Example 43]
[2]; in vivo, ip
  DL-0 (maximum non-lethal dose): > 800 mg/kg IP
[3]
  Ulcer index: 0.52
[4]
  Survival (survival percentage to hypoxic aggression): +++ (higher than or equal to 80%)

## CC(=O)N[C@H]1[C@H](Oc2ccc(C(=O)c3ccc([N+](=O)[O-])cc3)cc2)O[C@H](CO)[C@@H](O)[C@@H]1O [Example 44, [4-(4-nitrobenzoyl)-phenyl]-2-(N-acetyl)-β-D-glucosaminide]
[2]; in vivo, ip
  DL-0 (maximum non-lethal dose): > 800 mg/kg IP
[3]
  Ulcer index: 0.385
[4]
  Survival (survival percentage to hypoxic aggression): +++ (higher than or equal to 80%)

## O=C(c1ccccc1)c1cccc(O[C@@H]2OC[C@@H](O)[C@H](O)[C@H]2O)c1 [Example 45]
[2]; I.P.
  DL-0 (maximum non-lethal dose): > 800 mg/kg IP
[3]
  Ulcer index: 1.11
[1]
  inhibition in vivo at 100 mg/kg: 30 to 49%

## CC(=O)O[C@@H]1[C@@H](OC(C)=O)[C@H](Oc2ccc(C(=O)c3ccccc3C)cc2)OC[C@H]1OC(C)=O [Example 69]
[2]; in vivo, ip, I.P.
  LD50: 900 mg/kg
[3]
  Ulcer index: 0.78
[1]
  inhibition in vivo at 100 mg/kg: 30 to 49%

## CC(=O)O[C@@H]1[C@@H](OC(C)=O)[C@H](Oc2ccc(C(=O)c3ccccc3Cl)cc2)OC[C@H]1OC(C)=O [Example 70]
[2]; I.P.
  DL-0 (maximum non-lethal dose): > 800 mg/kg IP
[3]
  Ulcer index: 0.56
[1]
  inhibition in vivo at 100 mg/kg: 30 to 49%

## Cc1cc(C)c(C(=O)c2cccc(O[C@@H]3OC[C@@H](O)[C@H](O)[C@H]3O)c2)c(C)c1 [Example 71]
[2]; I.P.
  DL-0 (maximum non-lethal dose): > 800 mg/kg IP
[3]
  Ulcer index: 0.98
[1]
  inhibition in vivo at 100 mg/kg: 30 to 49%

## CC(=O)O[C@@H]1[C@@H](OC(C)=O)[C@H](Oc2ccc(C(=O)c3ccc(N)cc3)cc2)OC[C@H]1OC(C)=O [Example 77]
[2]; I.P.
  DL-0 (maximum non-lethal dose): > 800 mg/kg IP
[1]
  inhibition in vivo at 100 mg/kg: 30 to 49%

## OC(c1ccccc1)c1ccc(O[C@@H]2OC[C@@H](O)[C@H](O)[C@H]2O)cc1 (some centres unmarked) [Example 92]
[2]; in vivo, ip, I.P.
  LD50: 1400 mg/kg
[1]
  inhibition in vivo at 100 mg/kg: 30 to 49%

## CC(=O)N[C@H]1[C@H](Oc2ccc(C(O)c3ccc(Cl)cc3)cc2)O[C@H](CO)[C@@H](O)[C@@H]1O (some centres unmarked) [Example 100]
[2]; in vivo, ip
  DL-0 (maximum non-lethal dose): > 800 mg/kg IP
[3]
  Ulcer index: 0.35
[4]
  Survival (survival percentage to hypoxic aggression): ++ (from 50 to 79%)

## CC(=O)O[C@@H]1[C@@H](OC(C)=O)[C@H](Oc2ccc(C(=O)c3ccccc3C)cc2C)OC[C@H]1OC(C)=O [Example 103]
[2]; in vivo, ip
  DL-0 (maximum non-lethal dose): > 800 mg/kg IP
[3]
  Ulcer index: 0.65
[4]
  Survival (survival percentage to hypoxic aggression): ++ (from 50 to 79%)

## CC(=O)N[C@H]1[C@H](Oc2ccc(C(=O)c3ccc([N+](=O)[O-])cc3)cc2)O[C@H](COC(C)=O)[C@@H](OC(C)=O)[C@@H]1OC(C)=O [Example 109]
[2]; in vivo, ip
  DL-0 (maximum non-lethal dose): > 800 mg/kg IP
[3]
  Ulcer index: 0.65
[4]
  Survival (survival percentage to hypoxic aggression): ++ (from 50 to 79%)

## CC(=O)OC[C@H]1O[C@@H](Oc2ccc(C(=O)c3ccc([N+](=O)[O-])cc3)cc2)[C@H](OC(C)=O)[C@@H](OC(C)=O)[C@@H]1OC(C)=O [Example 110]
[2]; in vivo, ip
  DL-0 (maximum non-lethal dose): > 800 mg/kg IP
[3]
  Ulcer index: 0.71
[4]
  Survival (survival percentage to hypoxic aggression): ++ (from 50 to 79%)

## CC(=O)N[C@H]1[C@H](Oc2ccc(C(=O)c3ccc(C)cc3)cc2)O[C@H](CO)[C@@H](O)[C@@H]1O [Example 111]
[2]; in vivo, ip, I.P.
  LD50: 750 mg/kg
[3]
  Ulcer index: 0.42
[4]
  Survival (survival percentage to hypoxic aggression): ++ (from 50 to 79%)

## CC(=O)N[C@H]1[C@H](Oc2ccc(C(=O)c3ccc(C)cc3)cc2)O[C@H](COC(C)=O)[C@@H](OC(C)=O)[C@@H]1OC(C)=O [Example 112]
[2]; in vivo, ip
  DL-0 (maximum non-lethal dose): > 800 mg/kg IP
[3]
  Ulcer index: 0.68
[4]
  Survival (survival percentage to hypoxic aggression): ++ (from 50 to 79%)

## CC(=O)O[C@@H]1[C@@H](OC(C)=O)[C@H](Oc2ccc(C(=O)c3ccc(N(C)C)cc3)cc2)OC[C@H]1OC(C)=O [Example 116]
[2]; in vivo, ip
  DL-0 (maximum non-lethal dose): > 800 mg/kg IP
[3]
  Ulcer index: 0.44
[4]
  Survival (survival percentage to hypoxic aggression): + (from 30 to 49%)

## OC(c1ccccc1)c1cccc(O[C@@H]2OC[C@@H](O)[C@H](O)[C@H]2O)c1 (some centres unmarked) [Example 117]
[2]; in vivo, ip, I.P.
  LD50: 1000 mg/kg
[3]
  Ulcer index: 0.59
[4]
  Survival (survival percentage to hypoxic aggression): ++ (from 50 to 79%)

## CC(=O)N[C@H]1[C@H](Oc2ccc(C(=O)c3ccccc3C)cc2)O[C@H](CO)[C@@H](O)[C@@H]1O [Example 121]
[2]; in vivo, ip
  DL-0 (maximum non-lethal dose): > 800 mg/kg IP
[3]
  Ulcer index: 0.39
[4]
  Survival (survival percentage to hypoxic aggression): + (from 30 to 49%)

## CC(=O)N[C@H]1[C@H](Oc2ccc(C(=O)c3ccccc3C)cc2C)O[C@H](CO)[C@@H](O)[C@@H]1O [Example 122]
[2]; in vivo, ip
  DL-0 (maximum non-lethal dose): > 800 mg/kg IP
[3]
  Ulcer index: 0.91
[4]
  Survival (survival percentage to hypoxic aggression): + (from 30 to 49%)
